Results as given in US5378706A, “Fused-thiazole derivatives active on the cholinergic system, and pharmaceutical compositions containing same” (Sanofi, priority 1987, dated 1995).

How the values were obtained:
[1] = molecular target: T1, M2 -type muscarinic cholinergic receptor (Cavia porcellus, UniProt H0VRN8); test: Affinity for the M2-type muscarinic cholinergic receptor, displacement of tritiated N-methylscopolamine (3H-NMS) on smooth guinea-pig ileum muscle homogenate; type: binding; settings: guinea-pig ileum smooth muscle homogenate, 3H-NMS 0.3 nM, 20 minutes at 30° C., pH 7.5; read-out: IC50 3H-NMS (M2)
T1 construct: on a smooth guinea-pig ileum muscle homogenate; from tissue; host or cells: guinea-pig ileum smooth muscle homogenate
T1 sequence (H0VRN8 1-466): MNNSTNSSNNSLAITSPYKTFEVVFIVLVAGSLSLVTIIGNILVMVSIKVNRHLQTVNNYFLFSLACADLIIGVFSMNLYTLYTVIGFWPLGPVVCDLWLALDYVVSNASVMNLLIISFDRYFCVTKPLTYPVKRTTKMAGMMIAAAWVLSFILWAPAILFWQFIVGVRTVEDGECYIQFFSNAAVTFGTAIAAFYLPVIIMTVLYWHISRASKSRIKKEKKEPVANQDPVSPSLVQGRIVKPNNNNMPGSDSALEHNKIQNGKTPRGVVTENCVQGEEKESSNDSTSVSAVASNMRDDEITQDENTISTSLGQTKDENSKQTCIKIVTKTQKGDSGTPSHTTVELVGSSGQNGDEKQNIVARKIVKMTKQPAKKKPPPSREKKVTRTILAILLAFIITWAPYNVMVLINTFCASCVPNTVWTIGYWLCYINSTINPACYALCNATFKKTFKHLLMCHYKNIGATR
Method: The M1 -type receptors are concentrated in certain regions of the brain, such as the hippocampus, the cerebral cortex and the striatum, and also in the sympathetic ganglia. These binding sites can be selectively labeled with tritiated pirenzepine (^3 H-PZ). The M2 -type receptors predominate in the heart and the ileum and can be labeled with tritiated N-methyl-scopolamine (^3 H-NMS). The selectivity of the products of the invention with respect to the M1 and M2 sites was determined by studying their in vitro interaction with ^3 H-PZ and ^3 H-NMS firmly bound with a high affinity to rat hippocampus membranes and smooth guinea-pig ileum muscle, respectively.
The interaction with the M2 -type muscarinic receptors was studied by in vitro measurement, on a smooth guinea-pig ileum muscle homogenate, of the displacement of tritiated N-methylscopolamine from its specific binding sites. […] The final volume is 1 ml. The reaction is stopped by centrifugation for 5 minutes at 15,000×g. The non-specific binding is determined in the presence of 10 mM atropine sulfate.
The IC50 for ^3 H-PZ displacement represents the affinity for the M1 receptor; the IC50 for ^3 H-NMS displacement represents the affinity for the M2 receptor.

[2] = molecular target: T2, M1 -type muscarinic cholinergic receptor (Rattus norvegicus, UniProt P08482); test: biochemical; type: binding; settings: for IC50: rat hippocampus homogenate, 3H-PZ 1 nM, 2 hours at 4° C., pH 7.40, read-out: IC50 3H-PZ (M1); for ratio R of the IC50 values for the M1 and M2 receptors: selectivity, values correspond to IC50 M2 / IC50 M1
T2 sequence (P08482 1-460): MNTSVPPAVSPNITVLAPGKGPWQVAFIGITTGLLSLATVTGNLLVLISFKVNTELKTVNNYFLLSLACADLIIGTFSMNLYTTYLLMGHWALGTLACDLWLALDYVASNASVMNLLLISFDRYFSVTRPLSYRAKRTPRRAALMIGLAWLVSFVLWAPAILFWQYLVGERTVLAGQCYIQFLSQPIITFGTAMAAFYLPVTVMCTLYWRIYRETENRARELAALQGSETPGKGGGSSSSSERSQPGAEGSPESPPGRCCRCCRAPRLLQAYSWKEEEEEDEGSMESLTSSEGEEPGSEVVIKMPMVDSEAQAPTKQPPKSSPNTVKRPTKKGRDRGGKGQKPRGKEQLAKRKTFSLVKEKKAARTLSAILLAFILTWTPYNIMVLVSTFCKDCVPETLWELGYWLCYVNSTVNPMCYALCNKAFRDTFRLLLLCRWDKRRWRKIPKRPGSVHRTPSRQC
Method: The interaction of the molecules with the M1 -type muscarinic receptors was studied by in vitro measurement, on a rat hippocampus homogenate, of the displacement of tritiated pirenzepine from its specific binding sites. Aliquots (10 μl) of a 5% (w/v) rat hippocampus homogenate in an Na2 HPO4 buffer (50 mM, pH 7.40) are incubated for 2 hours at 4° C. in the presence of ^3 H-PZ (76 Ci/mmol; final concentration 1 nM) and increasing concentrations of the test product. The final volume is 2 ml. The reaction is stopped by centrifugation for 10 minutes at 50,000×g. After decantation and washing of the residues, the bound radioactivity is counted by liquid scintillation. The non-specific binding is determined in the presence of 10 μM atropine sulfate.

[3] = tested on: M1 central muscarinic cholinergic receptors; test: Antagonism of rotations induced by intrastriatal injection of pirenzepine in mice; type: in vivo, mice (Swiss, CD 1); settings: for Pirenzepine antagonism ED50 p.o.: 30 minutes before intrastriatal pirenzepine 1 μg; for Pirenzepine antagonism ED50 i.p.: 15 minutes before intrastriatal pirenzepine 1 μg
Method: Pirenzepine (PZ) is a specific antagonist of the M1 central muscarinic cholinergic receptors. The intrastriatal injection of PZ into mice induces rotatory behavoir. The antagonism of this behavoir by the products according to the invention was studied.
The products according to the invention are administered either intraperitoneally (i.p.) or orally (p.o.) after solubilization in distilled water or suspension in a 5% solution of gum arabic. The control animals receive the pure solvent under the same conditions.
The animals used are female mice (Swiss, CD 1, Charles River, France) with a body weight of between 25 and 30 grams.
The pirenzepine is dissolved in a phosphate buffer and the pH of the solution is 6.
The test products or their solvents are administered in a volume of 0.4 ml per 20 g of body weight, either by i.p. injection or orally via an esophageal tube.
The number of contralateral rotations (rotations in the opposite direction to the side injected) was counted for three 2-minute periods after injection of the pirenzepine: 2nd to 4th, 8th to 10th and 13th to 15th minutes. Each treatment consists of 3 to 4 doses and 10 animals per dose. The total number of rotations and the percentage antagonism with respect to the control group are calculated for each treatment.

| Structure (SMILES) | IC50 [1] | IC50 [2] | ratio R of the IC50 values for the M1 and M2 receptors [2] | Pirenzepine antagonism ED50 p.o. [3] | Pirenzepine antagonism ED50 i.p. [3] |
| --- | --- | --- | --- | --- | --- |
| CN(C)CCCNc1nc(C2CCCCC2)cs1 [SR 44574 A] | 24 µM | 0.2 µM | 120 |  |  |
| CCN(CC)CCNc1nc(-c2ccccc2)c(-c2ccccc2)s1 [SR 44437 A] | 3 µM | 0.43 µM | 7 |  |  |
| c1ccc(-c2cnc(NCCN3CCCCC3)s2)cc1 [SR 44490 A] | 25 µM | 1.5 µM | 16 |  |  |
| c1ccc(-c2nc(NCCc3ccccn3)sc2-c2ccccc2)cc1 [SR 44906 A] | > 100 µM | 2.4 µM | > 42 |  |  |
| Cc1cc(C)c(-c2csc(NCc3ccncc3)n2)c(C)c1 [SR 44864 A] | > 100 µM | 0.28 µM | > 360 |  |  |
| c1ccc2cc(-c3csc(NCCN4CCCCC4)n3)ccc2c1 [SR 44516 A] | 75 µM | 3.4 µM | 22 |  |  |
| Cc1cc(C)c(-c2csc(NCCCN(C(C)C)C(C)C)n2)c(C)c1 [SR 44887 A] |  |  |  | 0.3 mg/kg |  |
| CN1CCCC1CCNc1nc(-c2ccc(F)cc2)cs1 (stereo not shown) [SR 44786 A] | 40 µM | 0.6 µM | 67 |  |  |
| CC(C)(c1ccccc1)c1csc(NCc2cccnc2)n1 [SR 45106 A] | > 100 µM | 3 µM | > 33 |  |  |
| CCN(CC)CCCNc1nc(-c2ccccc2)c(C)s1 [SR 44434 A] | 70 µM | 1.5 µM | 46 |  |  |
| Cc1cc(C)c(-c2csc(NCCCN)n2)c(C)c1 [SR 44949 A, 2-[(3-Aminopropyl)amino]-4-(2,4,6-trimethylphenyl)thiazole] |  |  |  | 10 mg/kg |  |
| Cc1cc(C)c(-c2csc(NCc3ccccn3)n2)c(C)c1 [SR 44813 A] | > 100 µM | 6 µM | > 17 |  |  |
| Cc1cc(C)c(-c2csc(NCCC3CCCN3C)n2)c(C)c1 (stereo not shown) [SR 44814 A] |  | 1.4 µM | 7 | 0.2 mg/kg |  |
| CCCCN(CCCC)CCNc1ncc(-c2ccccc2)s1 [SR 44492 A] | 28 µM | 3.6 µM | 8 |  |  |
| c1ccc(-c2cnc(NCCN3CCOCC3)s2)cc1 [SR 44285 A] |  |  |  |  | 3 mg/kg |
| NCCCNc1nc(-c2ccc(F)cc2)cs1 [SR 44886 A, 2-[(3-Aminopropyl)amino]-4-(4-fluorophenyl)thiazole] | 70 µM | 6.3 µM | 11 |  |  |
| c1csc(-c2csc(NCCN3CCOCC3)n2)c1 [SR 44575 A] | > 100 µM | 7 µM | > 14 |  |  |
| CC(C)N(CCNc1ncc(-c2ccccc2)s1)C(C)C [SR 44491 A] | 8.5 µM | 0.8 µM | 10 |  |  |
| CCN(CC)CCNc1nc(C)c(-c2ccccc2)s1 [SR 44436 A] | 50 µM | 1.7 µM | 29 |  |  |
| CCN(CC)CCNc1nc(C)cs1 [SR 44422 A] | 100 µM | 8.1 µM | 12 |  |  |

| Structure (SMILES) | IC50 [1] | IC50 [2] | ratio R of the IC50 values for the M1 and M2 receptors [2] | Pirenzepine antagonism ED50 p.o. [3] | Pirenzepine antagonism ED50 i.p. [3] |
| --- | --- | --- | --- | --- | --- |
| Fc1ccc(-c2csc(NCc3ccncc3)n2)cc1 [SR 44840 A] | > 100 µM | 0.6 µM | > 167 |  |  |
| CN(C)CCCNc1nc(-c2cccc([N+](=O)[O-])c2)cs1 [SR 44791 A] | 40 µM | 5 µM | 8 |  |  |
| Cc1nc(NCCN2CCCC2)sc1-c1ccccc1 [SR 44488 A] | 34 µM | 1.7 µM | 20 |  |  |
| Cc1cc(C)c(-c2csc(NCCc3ccccn3)n2)c(C)c1 [SR 44905 A] | 60 µM | 2.4 µM | 25 |  |  |
| c1ccc(-c2cnc(NCCc3ccncc3)s2)cc1 [SR 44966 A] | 100 µM | 4.5 µM | 22 |  |  |
| CCN(CC)CCNc1nc(-c2ccc([N+](=O)[O-])cc2)cs1 [SR 44469 A] | 60 µM | 2.6 µM | 23 |  |  |
| c1ccc(-c2cnc(NCCN3CCCC3)s2)cc1 [SR 44438 A] | 60 µM | 1 µM | 60 |  |  |
| Cc1ccc(-c2csc(NCCCN(C)C)n2)cc1 [SR 44832 A] | > 100 µM | 2.4 µM | > 42 |  |  |
| CCCCN(CCCC)CCNc1nc(-c2ccc(F)cc2)cs1 [SR 44451 A] | 80 µM | 6 µM | 13 |  |  |
| CCN(CC)CCCNc1nc(Cc2ccccc2)c(-c2ccccc2)s1 [SR 44515 A] | 3.4 µM | 0.2 µM | 17 |  |  |
| CC(C)N(CCCNc1nc(-c2ccc(F)cc2F)cs1)C(C)C [SR 44916 A] | 5 µM | 0.13 µM | 38 |  |  |
| CCN(CC)CCNc1nc(C23CC4CC(CC(C4)C2)C3)cs1 [SR 44468 A] | 22 µM | 1.2 µM | 18 |  |  |
| Cc1cc(C)c(-c2csc(NCCN(C(C)C)C(C)C)n2)c(C)c1 [SR 44908 A] | 4 µM | 0.13 µM | 31 |  |  |
| c1ccc(-c2nc(NCc3cccnc3)sc2-c2ccccc2)cc1 [SR 44904 A] | > 100 µM | 6 µM | > 17 |  |  |
| c1ccc2c(c1)CCCc1sc(NCCCN3CCOCC3)nc1-2 [SR 44392 A] |  |  |  |  | 3 mg/kg |
| Cc1nc(NCCN(C(C)C)C(C)C)sc1-c1ccccc1 [SR 44489 A] | 2 µM | 0.3 µM | 6 |  |  |
| COc1ccccc1-c1csc(NCCCN(C)C)n1 [SR 44465 A] | 40 µM | 2.6 µM | 15 |  |  |
| CCc1nc(NCCCN(CC)CC)sc1-c1ccccc1 [SR 44963 A] | 6 µM | 0.12 µM | 50 |  |  |
| Cc1sc(NCCCN(C)C)nc1-c1ccccc1 [SR 44769 A] | 30 µM | 2 µM | 15 |  |  |
| CN(C)CCCNc1ncc(-c2ccccc2)s1 [SR 44967 A] | 40 µM | 1.8 µM | 22 |  |  |
